Assay results from patent US6436908B1, “Use of exogenous β-adrenergic receptor and β-adrenergic receptor kinase gene constructs to enhance myocardial function” (Duke University, priority 1995, dated 2002).
Like-named read-outs stand apart in the source and are kept apart here.

Tests used:
[1] = target: T1, β1-AR (Mus musculus, UniProt P34971); test: ICI 118,551 competition binding against [125I]cyanopindolol, control heart sarcolemmal membranes, low affinity component
T1 construct: Sarcolemmal membranes were prepared from control mouse hearts; from tissue; host or cells: sarcolemmal membranes of control mouse hearts (A3), and of control and TGβK12 mouse hearts (A4)
T1 sequence (P34971 whole entry): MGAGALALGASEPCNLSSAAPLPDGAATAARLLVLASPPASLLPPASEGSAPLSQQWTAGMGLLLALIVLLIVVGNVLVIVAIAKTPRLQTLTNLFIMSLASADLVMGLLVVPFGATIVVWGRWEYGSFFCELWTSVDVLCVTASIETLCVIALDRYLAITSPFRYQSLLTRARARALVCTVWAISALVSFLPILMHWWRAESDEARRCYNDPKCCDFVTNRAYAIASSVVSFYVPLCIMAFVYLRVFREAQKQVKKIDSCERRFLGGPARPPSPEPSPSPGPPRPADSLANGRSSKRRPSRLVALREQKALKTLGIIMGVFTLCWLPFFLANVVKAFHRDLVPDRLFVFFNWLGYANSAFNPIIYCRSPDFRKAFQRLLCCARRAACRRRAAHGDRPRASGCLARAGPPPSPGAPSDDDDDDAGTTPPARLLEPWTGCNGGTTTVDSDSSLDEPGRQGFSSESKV
Description: Myocardial sarcolemmal membranes were prepared by homogenizing whole hearts in ice-cold buffer A [50 mM HEPES (pH 7.3), 150 mM KCl, 5 mM EDTA]. Nuclei and tissue were separated by centrifugation at 800×g for 10 min and the crude supernatant was then centrifuged at 20,000×g for 10 min. The subsequent pellet was resuspended in buffer A and centrifuged at 20,000×g for 10 min. The final pellet was resuspended at a concentration of 2-3 mg protein per ml in buffer B [50 mM HEPES (pH7.3), 5 mM MgCl2].

[2] = system: left ventricular function; test: LV dP/dtmax before and after systemic β2-AR antagonist; assay type: in vivo, mouse
Excerpt: FIG. 7. Effect of administering β-AR antagonist. […] Asterisks indicate p<0.05, paired Student's T-test.

[3] = system: adenylyl cyclase; assay type: biochemical, mouse; conditions: for NaF stimulated cyclase activity, mean (±SD): 10 mM NaF; for EC50: read-out: EC50 of isoproterenol-stimulated adenylyl cyclase activity
Description: FIG. 4. Adenylyl Cyclase Activity. Membranes were prepared from TG4 hearts and nontransgenic litter mate control hearts as described in FIG. 2. […] Each point on the graph represents the mean±SEM of seven independent experiments each performed in duplicate.
The inotropic response resulting from myocardial β-AR stimulation is mediated through activation of adenylyl cyclase and the intracellular second messenger cAMP. To assess whether the myocardium of transgenic animals overexpressing β2-AR had enhanced adenylyl cyclase activity, myocardial membranes were incubated with [^32P]ATP and the rate of cAMP formation was measured.

[4] = system: isolated atria; test: Isometric tension development in isolated atria; design: species or system mouse; conditions: TG4 atria, doses maximally stimulating controls
Description: FIGS. 5A-C. Baseline and maximally stimulated responses in isolated atria. Atria were suspended under optimal resting tension in modified Kreb's bicarbonate solution at 30° C. […]. Data are shown as the mean values±SEM for control animals (n=7 or 8) and TG4 animals (n=5 or 6). In all three responses, the baseline values for the TG4 animals were greater than the baseline in the control animals (* P<0.05 Student's t-test), but not different from either control isoproterenol-stimulated values or from TG4 isoproterenol-stimulated values.
To directly assess the effect of β2-AR overexpression on myocardial inotropy, isometric tension development was determined in isolated, perfused atria. […] In the left atria, basal tension was approximately three times that of the control levels. Baseline isometric tension in the transgenics was not different from the maximal isoproterenol-stimulated tension in control atria. […] To eliminate the possibility that this increased rate might be contributing to the increased tension measured in the transgenic myocardium, experiments were conducted to assess the relationship of rate to developed tension. From a rate of 240 to 360 beats/min. […] All atria studied were weighed, and no significant differences were noted between transgenic and control weights.

[5] = system: left ventricular function; test: In vivo assessment of left ventricular function, TG4 and control mice; design: species or system mouse
[6] = system: left ventricular function; test: In vivo assessment of left ventricular function, TGβK12 and TGMini27 mice; design: species or system mouse; conditions: for mean LV dP/dtmax (maximum contractility): 500 pg isoproterenol; for mean LV dP/dtmin (maximum LV relaxation): 1000 pg isoproterenol
Description: FIG. 12. In vivo assessment of left ventricular function of TGβK12 (n=10) and nontransgenic control mice (n=10). Animals were anesthetized and aortic and left ventricular catheters placed (28). […]; (B) LV dP/dtmin; (C) heart rate (HR); and (D) LV systolic pressure. Data are reported as means±SEM and were analyzed with a two way analysis of variance (ANOVA) with post hoc testing performed using Scheffe's F test (*, P<0.05). […]; (B) dP/dtmin, P<0.05; (C) HR, P<0.01 but not (D) LV systolic pressure, P=ns.
FIG. 13. In vivo assessment of left ventricular function of TGMini27 (n=7) and nontransgenic control mice (n=7). Mice were treated as in FIG. 4 (28) and four parameters are shown; (A) LV dP/dtmax,; (B) LV dP/dtmin; (C) HR; and (D) LV systolic pressure. Data are reported as mean±SEM and were analyzed as in FIG. 4 (*, P<0.05). […]; (B) dP/dtmin, P<0.005; and (D) LV systolic pressure, P<0.005.
Mice were anesthetized with a mixture of ketamine and xylazine (Milano et al., Science 264, 582 (1994)). A cervical incision was made, the trachea intubated and the animal connected to a volume-cycled ventilator. A carotid artery was then cannulated with a flamestretched PE 50 catheter connected to a modified P50 statham transducer. […]. Continuous pressures were recorded on an eight channel chart recorder and in digitized form on computer disk for beat averaging. Ten sequential beats were averaged for each measurement.

[7] = target: Gβγ; test: cell-based or functional assay
[8] = target: Gβγ
[9] = system: βARK; test: GRK activity of heart extracts, rhodopsin phosphorylation assay; assay type: biochemical, mouse; conditions: TGMini27 heart extracts, 50 μg protein, ~10 pmoles Gβγ, n=5

Question: Which Ki [1] does the source give for `Cc1ccc(OCC(O)C(C)NC(C)C)c2c1CCC2` (stereo not shown) [ICI 118,551] here?
Answer: 390 nM

Question: What about the “effect on the β1-AR binding component” value ([1]; 75 nM ICI 118,551) of the same molecule?
Answer: insignificantly affecting

Question: And the “share of low affinity binding population (β1 subtype)” value ([1]; control mouse heart sarcolemmal membranes)?
Answer: 75%

Question: What about the “change in elevated baseline LV dP/dtmax” value ([2]; TG4 transgenic mice, 5 μg systemic, four minutes after administration) of the same molecule?
Answer: Marked decreases

Question: What about the “change in LV dP/dtmax” value ([2]; control animals) of the same molecule?
Answer: no significant change

Question: `[F-].[Na+]` [NaF] was tested. Which “NaF stimulated cyclase activity, mean (±SD)” value ([3]; control membranes) did it give?
Answer: 606.4±207.8 pmol cAMP/min/mg protein

Question: And the “NaF stimulated cyclase activity, mean (±SD)” value ([3]; transgenic (TG4) membranes)?
Answer: 445.5±165.5 pmol cAMP/min/mg protein

Question: What does the source list for `CC(C)NCC(O)c1ccc(O)c(O)c1` (stereo not shown) [isoproterenol]?
Answer: inotropic response of atria (isometric tension) [4]: no further inotropic response; change in LV dP/dtmax ([5]; control animals, isoproterenol infusion): progressive increases; effect on blood pressure ([5]; doses greater than 1 nanogram): significant lowering of blood pressure; EC50 ([3]; TG4 heart membranes): 22 nM; EC50 ([3]; nontransgenic control heart membranes): 160 nM; left ventricular responses to isoproterenol ([6]; TGMini27 mice versus controls): markedly enhanced; mean LV dP/dtmax (maximum contractility) ([6]; TGMini27 mice): 10,821 mm Hg per sec; mean LV dP/dtmin (maximum LV relaxation) ([6]; TGMini27 mice): −8071 mm Hg per second; inotropic and chronotropic responses to isoproterenol ([6]; TGβK12 animals versus controls): significantly reduced; mean LV dP/dtmax (maximum contractility) ([6]; TGβK12 mice): 6457 mm Hg per sec; mean LV dP/dtmin (maximum LV relaxation) ([6]; TGβK12 mice): −4350 mm Hg per second

Question: “βARK1-(495-689) Minigene (from UniProt P21146 495-689)” was tested. Which stimulation of rhodopsin phosphorylation upon addition of Gβγ (~10 pmoles), heart extracts from TGMini27 mice (fold over basal) [7] did it give?
Answer: 2.16

B1: myocardial βARK (protein)
chain: MADLEAVLADVSYLMAMEKSKATPAARASKKILLPEPSIRSVMQKYLEDRGEVTFEKIFSQKLGYLLFRDFCLNHLEEAKPLVEFYEEIKKYEKLETEEERVVRSREIFDSYIMKELLACSHPFSKNATEHVQGHLVKKQVPPDLFQPYIEEICQNLRGDVFQKFIESDKFTRFCQWKNVELNIHLTMNDFSVHRIIGRGGFGEVYGCRKADTGKMYAMKCLDKKRIKMKQGETLALNERIMLSLVSTGDCPFIVCMSYAFHTPDKLSFILDLMNGGDLHYHLSQHGVFSEADMRFYAAEIILGLEHMHNRFVVYRDLKPANILLDEHGHVRISDLGLACDFSKKRPHASVGTHGYMAPEVLQKGVAYDSSADWFSLGCMLFKLLRGHSPFRQHKTKDKHEIDRMTLTMAVELPDSFSPELRSLLEGLLQRDVNRRLGCLGRGAQEVKESPFFRSLDWQMVFLQKYPPPLIPPRGEVNAADAFDIGSFDEEDTKGIKLLDSDQELYRNFPLTISERWQQEVAETVFDTINAETDRLEARKKAKNKQLGHEEDYALGKDCIVHGYMSKMGNPFLTQWQRRYFYLFPNRLEWRGEGEAPQSLLTMEEIQSVEETQIKERKCLLLKIRGGKQFVLQCDSDPELVQWKKELRDAYREAQQLVQRVPKMKNKPRSPVVELSKVPLIQRGSANGL
Question: For B1, which “stimulation of rhodopsin phosphorylation upon addition of Gβγ (~10 pmoles), control heart extracts” value [8] is on record?
Answer: 3.02±0.31 fold over basal, n=5

B2: βARK1-(495-689) Minigene: coding sequence for the last 194 amino acids of bovine βARK1; expressed soluble protein, in vivo βARK inhibitor (protein)
chain: GIKLLDSDQELYRNFPLTISERWQQEVAETVFDTINAETDRLEARKKTKNKQLGHEEDYALGKDCIMHGYMSKMGNPFLTQWQRRYFYLFPNRLEWRGEGEAPQSLLTMEEIQSVEETQIKERKCLLLKIRGGKQFVLQCDSDPELVQWKKELRDAYREAQQLVQRVPKMKNKPRSPVVELSKVPLIQRGSANGL
Question: Which results are given for B2?
Answer: stimulation of rhodopsin phosphorylation by Gβγ [9]: 2.16±0.12 fold over basal; baseline LV dP/dtmax, LV dP/dtmin and LV systolic pressure compared to control animals ([6]; TGMini27 mice, baseline): statistically elevated
